Source: publication PMC3417354 (Analytical biochemistry, 2012)

Legend:
mammalian cells = conditions: overexpression in mammalian cells; ref [19]; [20]; cited from earlier work
human PCNA = human PCNA (Homo sapiens, UniProt P12004); test: Competition-based fluorescence polarization assay with BODIPY-p21 peptide; format: binding; conditions: competition FP, abstract statement
PCNA trimer = test: Gel filtration chromatography of PCNA/peptide complexes; format: binding, human; conditions: Superose 12, peptide : PCNA trimer 1:1; UV 280 nm
[1] = tested on: PCNA-dependent DNA synthesis; test: Inhibition of PCNA-dependent DNA synthesis in HeLa cell extract; format: biochemical, human; conditions: PCNA titrated 0.05-2.5 μM (0.1-2.5 μM with 20 μM p21 peptide)

human PCNA, sequence (P12004 whole entry): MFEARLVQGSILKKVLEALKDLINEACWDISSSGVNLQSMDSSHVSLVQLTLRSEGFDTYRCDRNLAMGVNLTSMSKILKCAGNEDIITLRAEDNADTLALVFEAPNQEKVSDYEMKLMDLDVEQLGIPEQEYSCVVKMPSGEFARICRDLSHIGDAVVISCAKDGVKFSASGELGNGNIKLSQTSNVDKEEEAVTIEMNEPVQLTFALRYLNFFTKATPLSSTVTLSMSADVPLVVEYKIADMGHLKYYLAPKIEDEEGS

Row | Substance | arrest of cell division (in words) (mammalian cells) | dissociation constant (in words) (human PCNA) | binding of single or multiple PCNA trimers (in words) (PCNA trimer) | rescue of DNA synthesis by added PCNA (in words) [1]
1 | 20 amino-acid peptide spanning the C-terminus of p21: amino acids 141-160 of the native p21 | able to arrest cell division |  |  | 
2 | KRRQTSMTDFYHSKRRLIFSGGSGGSGGSGGSGGSGGSKRRQTSMTDFYHSKRRLIFS [divalent p21 peptide] |  | low nanomolar dissociation constant | rules out the binding of multiple PCNA trimers | reversed the inhibition
3 | KRRQTSMTDFYHSKRRLIFSGGSGGSGGSGGSGGSGGSKRRQTSMTDFYHSKRRLIFSGGSGGSGGSGGSGGSGGSKRRQTSMTDFYHSKRRLIFS [trivalent p21 peptide] |  | low nanomolar dissociation constant | rules out the binding of multiple PCNA trimers | reversed the inhibition
